Source: ChEMBL document CHEMBL4371054, “Dual inhibition of Kif15 by oxindole and quinazolinedione chemical probes” (Bioorg Med Chem Lett, 2019)

Target: T1, Kinesin-like protein KIF15 (Homo sapiens) (UniProt Q9NS87)
T1 sequence (whole entry): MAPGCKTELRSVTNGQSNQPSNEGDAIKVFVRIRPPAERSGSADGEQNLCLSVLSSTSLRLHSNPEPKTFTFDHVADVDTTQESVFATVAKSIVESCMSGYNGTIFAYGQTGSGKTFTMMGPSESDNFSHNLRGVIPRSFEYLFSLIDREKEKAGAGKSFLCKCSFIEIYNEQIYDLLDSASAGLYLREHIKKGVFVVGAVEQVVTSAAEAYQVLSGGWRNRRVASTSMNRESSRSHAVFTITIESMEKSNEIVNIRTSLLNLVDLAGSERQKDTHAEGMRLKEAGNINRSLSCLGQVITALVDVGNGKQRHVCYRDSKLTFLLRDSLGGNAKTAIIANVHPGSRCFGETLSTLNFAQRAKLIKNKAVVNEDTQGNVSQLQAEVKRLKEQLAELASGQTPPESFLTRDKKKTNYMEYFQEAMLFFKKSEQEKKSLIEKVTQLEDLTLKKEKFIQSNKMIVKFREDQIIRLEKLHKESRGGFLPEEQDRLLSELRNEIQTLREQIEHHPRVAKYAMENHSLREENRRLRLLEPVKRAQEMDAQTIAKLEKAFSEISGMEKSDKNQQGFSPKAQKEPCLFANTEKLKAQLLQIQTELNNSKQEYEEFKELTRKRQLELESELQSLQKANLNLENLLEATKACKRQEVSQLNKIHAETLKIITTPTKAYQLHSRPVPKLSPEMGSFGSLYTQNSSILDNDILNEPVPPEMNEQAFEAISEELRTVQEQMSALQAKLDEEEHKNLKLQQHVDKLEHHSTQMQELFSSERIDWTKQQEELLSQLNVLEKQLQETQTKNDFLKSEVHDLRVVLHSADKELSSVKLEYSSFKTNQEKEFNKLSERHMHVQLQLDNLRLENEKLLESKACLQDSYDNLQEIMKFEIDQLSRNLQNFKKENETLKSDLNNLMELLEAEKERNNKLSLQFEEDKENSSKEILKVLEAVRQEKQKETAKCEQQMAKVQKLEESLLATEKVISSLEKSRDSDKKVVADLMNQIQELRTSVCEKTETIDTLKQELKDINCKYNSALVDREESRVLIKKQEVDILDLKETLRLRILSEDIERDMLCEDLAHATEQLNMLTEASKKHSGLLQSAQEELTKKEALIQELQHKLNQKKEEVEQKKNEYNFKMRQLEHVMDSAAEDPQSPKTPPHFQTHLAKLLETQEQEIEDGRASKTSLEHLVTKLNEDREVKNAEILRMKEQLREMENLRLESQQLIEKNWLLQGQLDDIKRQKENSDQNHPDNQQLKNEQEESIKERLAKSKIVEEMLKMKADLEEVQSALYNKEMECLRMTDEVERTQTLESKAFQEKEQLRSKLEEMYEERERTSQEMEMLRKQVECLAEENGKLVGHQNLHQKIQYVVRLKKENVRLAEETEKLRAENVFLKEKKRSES
Test: Inhibition of recombinant His6-tagged Kif15 (N700 residues) (unknown origin) expressed in HeLa cells assessed as reduction in Alexa-594 labelled microtubule gliding at 750 nM measured every 2 secs for 20 secs by epifluorescence microscopic analysis (reference value: 1%)
Format: cell-based

## O=C1Nc2ccc(C(=O)c3ccco3)cc2/C1=C/c1cc(Cl)c(O)c(Cl)c1
  inhibition: 49%
